Measurements: patent US8133849B2, “Herbicidal compounds” (Syngenta Limited, priority 2007, dated 2012)

Assays:
Test in all cases: Example B2 herbicidal action, post-emergence, pots in glasshouse, damage score 0-10
Format in all cases: in vivo
Conditions in all cases: application post-emergence, rate 1000 g/ha, evaluated after 13 days
[1] = tested on: Ipomea hederaceae
Method in brief: (§1)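 Evaluation took place 13 days post-spray. Treatment used an acetone/water (50:50), 0.5% Tween 20 formulation applied to 8-day-old potted plants, held at 24/16 °C with 14 h light, 65% humidity and twice-daily watering.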

[2] = tested on: Solanum nigrum
Method in brief: as §1

[3] = tested on: Amaranthus retroflexus
Method in brief: as §1

[4] = tested on: Echinochloa crus-galli
Method in brief: as §1

[5] = tested on: Setaria faberi
Method in brief: as §1

SMILES | IPOHE damage score (10=total damage to plant; 0=no damage to plant) [1] | SOLNI damage score (10=total damage to plant; 0=no damage to plant) [2] | AMARE damage score (10=total damage to plant; 0=no damage to plant) [3] | ECHCG damage score (10=total damage to plant; 0=no damage to plant) [4] | SETFA damage score (10=total damage to plant; 0=no damage to plant) [5]
CCN1c2nccnc2C(OC(=O)C(C)(C)C)=C(c2c(F)cccc2C(F)(F)F)S1(=O)=O [Compound C43] | 5 | 6 | 5 | 5 | 3
CC(C)(C)C(=O)OC1=C(c2ccccc2C(F)(F)F)S(=O)(=O)N(CC(F)F)c2nccnc21 [Compound C62] | 8 | 6 | 7 | 4 | 6
O=C(OC1=C(c2c(Cl)ccc(Cl)c2Cl)S(=O)(=O)N(CC(F)F)c2nccnc21)Sc1ccccc1 [Compound C126] | 7 | 9 | 9 | 7 | 4
CCN1c2nccnc2C(OC(=O)C(C)(C)C)=C(c2c(F)ccc(Cl)c2Cl)S1(=O)=O [Compound C16] | 7 | 10 | 7 | 3 | 0
O=S1(=O)C(c2ccc(Br)cc2C(F)(F)F)=C(O)c2nccnc2N1CC(F)F [Compound D56] | 10 | 9 | 10 | 7 | 6
CC(C)C(=O)OC1=C(c2cc(C(F)(F)F)ccc2Cl)S(=O)(=O)N(CC(F)F)c2nccnc21 [Compound C91] | 10 | 9 | 9 | 6 | 3
CC(C)C(=O)OC1=C(c2cc(Cl)ccc2C(F)(F)F)S(=O)(=O)N(CC(F)F)c2nccnc21 [Compound C113] | 9 | 10 | 8 | 7 | 6
Cc1ccc(C2=C(OC(=O)C(C)C)c3nccnc3N(CC(F)F)S2(=O)=O)c(Cl)c1 [Compound C136, isobutyric acid 3-(2-chloro-4-methyl-phenyl)-1-(2,2-difluoro-ethyl)-2,2-dioxo-1,2-dihydro-2-λ-6-thia-1,5,8-triaza-naphthalen-4-yl ester] | 7 | 8 | 3 | 0 | 2
Cc1ccc(F)c(C2=C(O)c3nccnc3N(CC(F)F)S2(=O)=O)c1Cl [Compound D12] | 5 | 9 | 6 | 0 | 2
CC(C)C(=O)OC1=C(c2c(F)ccc(Cl)c2Cl)S(=O)(=O)N(CC(F)F)c2nccnc21 [Compound C36] | 10 | 9 | 9 | 7 | 3
C#CCN1c2nccnc2C(O)=C(c2c(Cl)ccc(Cl)c2C(F)(F)F)S1(=O)=O [Compound D45] | 8 | 9 | 8 | 6 | 6
CCSC(=O)OC1=C(c2cc(C(F)(F)F)ccc2Br)S(=O)(=O)N(CC(F)F)c2nccnc21 [Compound C60] | 10 | 10 | 10 | 7 | 1
CCN1c2nccnc2C(O)=C(c2ccccc2C(F)(F)F)S1(=O)=O [Compound D33] | 10 | 10 | 9 | 8 | 8
O=S1(=O)C(c2c(Br)cccc2Br)=C(O)c2nccnc2N1CC(F)F [Compound D28] | 8 | 9 | 10 | 8 | 8
CCN1c2nccnc2C(OC(=O)C(C)C)=C(c2cc(I)ccc2Cl)S1(=O)=O [Compound C51] | 6 | 7 | 5 | 1 | 0
CC(C)(C)C(=O)OC1=C(c2cc(I)ccc2Cl)S(=O)(=O)N(CC(F)F)c2nccnc21 [Compound C55] | 8 | 7 | 7 | 2 | 2
